In the NIST ThermoML archive (doi:10.1021/acs.jced.7b00773):

Settings: Liquid; for viscosity: Concentric cylinders viscometry

CCCC[N+]1(C)CCCC1.O=S(=O)([N-]S(=O)(=O)C(F)(F)F)C(F)(F)F
100 kPa
Settings | viscosity [mPa·s]
293.15 K | 98.53
303.15 K | 61.87
313.15 K | 41.45
323.15 K | 29.25
333.15 K | 21.53
343.15 K | 16.4
353.15 K | 12.86
363.15 K | 10.33
373.15 K | 8.471

Settings | mass density [kg/m3]
293.15 K, 100 kPa, Vibrating tube method | 1398.7
303.15 K, 100 kPa, Vibrating tube method | 1389.8
311.6 K, 10000 kPa, Bellows volumetry | 1389.1
311.6 K, 20000 kPa, Bellows volumetry | 1396.1
311.6 K, 30000 kPa, Bellows volumetry | 1402.6
311.6 K, 40000 kPa, Bellows volumetry | 1408.7
311.6 K, 50000 kPa, Bellows volumetry | 1414.5
311.6 K, 60000 kPa, Bellows volumetry | 1420.1
311.6 K, 70000 kPa, Bellows volumetry | 1425.5
311.6 K, 80000 kPa, Bellows volumetry | 1430.7
311.6 K, 90000 kPa, Bellows volumetry | 1435.5
311.6 K, 100000 kPa, Bellows volumetry | 1440.4
311.6 K, 110000 kPa, Bellows volumetry | 1445.5
311.6 K, 120000 kPa, Bellows volumetry | 1449.8
311.6 K, 130000 kPa, Bellows volumetry | 1454.3
311.6 K, 140000 kPa, Bellows volumetry | 1458.6
311.6 K, 150000 kPa, Bellows volumetry | 1462.9
311.6 K, 160000 kPa, Bellows volumetry | 1467.2
311.6 K, 170000 kPa, Bellows volumetry | 1471.2
311.6 K, 180000 kPa, Bellows volumetry | 1475.1
311.6 K, 190000 kPa, Bellows volumetry | 1479
311.6 K, 200000 kPa, Bellows volumetry | 1483
313.15 K, 100 kPa, Vibrating tube method | 1381
323.15 K, 100 kPa, Vibrating tube method | 1372.4
331.5 K, 10000 kPa, Bellows volumetry | 1372.4
331.5 K, 20000 kPa, Bellows volumetry | 1379.6
331.5 K, 30000 kPa, Bellows volumetry | 1386.5
331.5 K, 40000 kPa, Bellows volumetry | 1393
331.5 K, 50000 kPa, Bellows volumetry | 1399.1
331.5 K, 60000 kPa, Bellows volumetry | 1405
331.5 K, 70000 kPa, Bellows volumetry | 1410.6
331.5 K, 80000 kPa, Bellows volumetry | 1416
331.5 K, 90000 kPa, Bellows volumetry | 1421.3
331.5 K, 100000 kPa, Bellows volumetry | 1426.6
331.5 K, 110000 kPa, Bellows volumetry | 1431.4
331.5 K, 120000 kPa, Bellows volumetry | 1436
331.5 K, 130000 kPa, Bellows volumetry | 1440.6
331.5 K, 140000 kPa, Bellows volumetry | 1445.1
331.5 K, 150000 kPa, Bellows volumetry | 1449.5
331.5 K, 160000 kPa, Bellows volumetry | 1454
331.5 K, 170000 kPa, Bellows volumetry | 1458.1
331.5 K, 180000 kPa, Bellows volumetry | 1462.1
331.5 K, 190000 kPa, Bellows volumetry | 1466.1
331.5 K, 200000 kPa, Bellows volumetry | 1470.2
333.15 K, 100 kPa, Vibrating tube method | 1363.9
343.15 K, 100 kPa, Vibrating tube method | 1355.5
351.6 K, 10000 kPa, Bellows volumetry | 1355.8
351.6 K, 20000 kPa, Bellows volumetry | 1363.3
351.6 K, 30000 kPa, Bellows volumetry | 1370.6
351.6 K, 40000 kPa, Bellows volumetry | 1377.4
351.6 K, 50000 kPa, Bellows volumetry | 1383.9
351.6 K, 60000 kPa, Bellows volumetry | 1390
351.6 K, 70000 kPa, Bellows volumetry | 1395.9
351.6 K, 80000 kPa, Bellows volumetry | 1401.7
351.6 K, 90000 kPa, Bellows volumetry | 1407.4
351.6 K, 100000 kPa, Bellows volumetry | 1412.4
351.6 K, 110000 kPa, Bellows volumetry | 1417.5
351.6 K, 120000 kPa, Bellows volumetry | 1422.3
351.6 K, 130000 kPa, Bellows volumetry | 1427.1
351.6 K, 140000 kPa, Bellows volumetry | 1431.7
351.6 K, 150000 kPa, Bellows volumetry | 1436.5
351.6 K, 160000 kPa, Bellows volumetry | 1440.8
351.6 K, 170000 kPa, Bellows volumetry | 1445.1
351.6 K, 180000 kPa, Bellows volumetry | 1449.2
351.6 K, 190000 kPa, Bellows volumetry | 1453.3
351.6 K, 200000 kPa, Bellows volumetry | 1457.4
353.15 K, 100 kPa, Vibrating tube method | 1347.1
363.15 K, 100 kPa, Vibrating tube method | 1338.7
371.6 K, 10000 kPa, Bellows volumetry | 1339.4
371.6 K, 20000 kPa, Bellows volumetry | 1347.4
371.6 K, 30000 kPa, Bellows volumetry | 1355.3
371.6 K, 40000 kPa, Bellows volumetry | 1362.4
371.6 K, 50000 kPa, Bellows volumetry | 1369.3
371.6 K, 60000 kPa, Bellows volumetry | 1375.8
371.6 K, 70000 kPa, Bellows volumetry | 1382
371.6 K, 80000 kPa, Bellows volumetry | 1387.9
371.6 K, 90000 kPa, Bellows volumetry | 1393.8
371.6 K, 100000 kPa, Bellows volumetry | 1399
371.6 K, 110000 kPa, Bellows volumetry | 1404.3
371.6 K, 120000 kPa, Bellows volumetry | 1409.6
371.6 K, 130000 kPa, Bellows volumetry | 1414.5
371.6 K, 140000 kPa, Bellows volumetry | 1419.3
371.6 K, 150000 kPa, Bellows volumetry | 1424
371.6 K, 160000 kPa, Bellows volumetry | 1428.4
371.6 K, 170000 kPa, Bellows volumetry | 1433
371.6 K, 180000 kPa, Bellows volumetry | 1437.4
371.6 K, 190000 kPa, Bellows volumetry | 1441.6
371.6 K, 200000 kPa, Bellows volumetry | 1445.7
373.15 K, 100 kPa, Vibrating tube method | 1329.8
391.6 K, 10000 kPa, Bellows volumetry | 1323.3
391.6 K, 20000 kPa, Bellows volumetry | 1331.9
391.6 K, 30000 kPa, Bellows volumetry | 1340.1
391.6 K, 40000 kPa, Bellows volumetry | 1347.7
391.6 K, 50000 kPa, Bellows volumetry | 1354.8
391.6 K, 60000 kPa, Bellows volumetry | 1361.5
391.6 K, 70000 kPa, Bellows volumetry | 1368.2
391.6 K, 80000 kPa, Bellows volumetry | 1374.3
391.6 K, 90000 kPa, Bellows volumetry | 1380.3
391.6 K, 100000 kPa, Bellows volumetry | 1385.9
391.6 K, 110000 kPa, Bellows volumetry | 1391.3
391.6 K, 120000 kPa, Bellows volumetry | 1396.9
391.6 K, 130000 kPa, Bellows volumetry | 1401.9
391.6 K, 140000 kPa, Bellows volumetry | 1406.8
391.6 K, 150000 kPa, Bellows volumetry | 1411.5
391.6 K, 160000 kPa, Bellows volumetry | 1416.3
391.6 K, 170000 kPa, Bellows volumetry | 1420.8
391.6 K, 180000 kPa, Bellows volumetry | 1425.3
391.6 K, 190000 kPa, Bellows volumetry | 1429.7
391.6 K, 200000 kPa, Bellows volumetry | 1434
411.3 K, 10000 kPa, Bellows volumetry | 1307.4
411.3 K, 20000 kPa, Bellows volumetry | 1316.7
411.3 K, 30000 kPa, Bellows volumetry | 1325.3
411.3 K, 40000 kPa, Bellows volumetry | 1333.4
411.3 K, 50000 kPa, Bellows volumetry | 1341
411.3 K, 60000 kPa, Bellows volumetry | 1348
411.3 K, 70000 kPa, Bellows volumetry | 1354.7
411.3 K, 80000 kPa, Bellows volumetry | 1361.2
411.3 K, 90000 kPa, Bellows volumetry | 1367.3
411.3 K, 100000 kPa, Bellows volumetry | 1373.4
411.3 K, 110000 kPa, Bellows volumetry | 1379
411.3 K, 120000 kPa, Bellows volumetry | 1384.4
411.3 K, 130000 kPa, Bellows volumetry | 1389.7
411.3 K, 140000 kPa, Bellows volumetry | 1394.9
411.3 K, 150000 kPa, Bellows volumetry | 1400
411.3 K, 160000 kPa, Bellows volumetry | 1404.8
411.3 K, 170000 kPa, Bellows volumetry | 1409.4
411.3 K, 180000 kPa, Bellows volumetry | 1414.1
411.3 K, 190000 kPa, Bellows volumetry | 1418.5
411.3 K, 200000 kPa, Bellows volumetry | 1422.8
